Tested on: C. albicans ATCC 90028 biofilm
Experiment: Antifungal biofilm susceptibility testing (Minimum Biofilm Inhibitory Concentration, broth microdilution, CellTiter 96)
Assay type: cell-based, Candida albicans
Settings: for Minimum Biofilm Inhibitory Concentration: lowest concentration giving 50% reduction of fungal growth, 48 h at 35° C., combination expressed as concentration of itraconazole
Procedure: Materials: Itraconazole EP Micronized (lot number C149307) and PCCA Formula #10342 (4 g of Itraconazole EP Micronized+37.574 g of Poloxamer composition) were provided by PCCA (Houston, Tex., USA) as powders. Itraconazole and PCCA Formula #10342 were prepared on the day of the assay. Fluconazole and amphotericin B were obtained as powders and stored at 4° C. […] Strain: Candida albicans isolate ATCC 90028 was obtained from American Type Culture Collection (Manassas, Va.), and used in the course of this study. Methods: In order to determine antimicrobial activity of itraconazole and the micronized poloxamer composition against biofilms of Candida albicans, an antifungal biofilm susceptibility testing was developed in conditions where a Minimum Biofilm Inhibitory Concentration (MBIC) of itraconazole within the micronized poloxamer composition, micronized poloxamer excipient, itraconazole, fluconazole and amphotericin B was measured for the C. albicans biofilm according to the conventional NCCLS M27-A broth microdilution method. The testing medium used for growing was RPMI 1640 (American Biorganics, Inc., […].) supplemented with L-glutamine (Sigma Aldrich®). Yeast inocula (100 μL of 1×10^6 cells/mL) were added to each well of 96-well microtiter plates (Corning) and incubated at 37° C. for 48 h. After biofilm formation, medium was aspirated and non-adherent cells were […] (PBS, Sigma Aldrich®). […] A series of sample-free wells and biofilm-free wells were also included to serve as positive and negative controls, respectively. […] Cell viability was determined by using a conventional CellTiter 96® Non-Radioactive Cell Proliferation Assay.

Row | Structure (SMILES) | Minimum Biofilm Inhibitory Concentration | MBIC
1 | CCC(C)n1ncn(-c2ccc(N3CCN(c4ccc(OCC5COC(Cn6cncn6)(c6ccc(Cl)cc6Cl)O5)cc4)CC3)cc2)c1=O (centres unmarked) [Itraconazole, itraconazole] | 1024 µg/mL | –
2 | OC(Cn1cncn1)(Cn1cncn1)c1ccc(F)cc1F [Fluconazole, fluconazole] | >1,024 ug/mL | > 1024 µg/mL
3 | C[C@@H]1[C@H](O)[C@@H](C)/C=C/C=C/C=C/C=C/C=C/C=C/C=C/[C@H](O[C@@H]2O[C@H](C)[C@@H](O)[C@H](N)[C@@H]2O)C[C@@H]2O[C@](O)(C[C@@H](O)C[C@@H](O)[C@H](O)CC[C@@H](O)C[C@@H](O)CC(=O)O[C@H]1C)C[C@H](O)[C@H]2C(=O)O [Amphotericin B, amphotericin B] | 0.5 µg/mL | 0.5 µg/mL

— patent US10016500B2, “Poloxamer-based pharmaceutical compositions for treating wounds” (Professional Compounding Centers of America (PCCA), priority 2014, dated 2018)
